# Key:
# IL-1 (interleukin 1) = experiment: Inhibition of IL-1 secretion on PBMC cells (method of Schindler); format: cell-based; details: tests in duplicate
# Procedure: (§1) The inhibiting activity on the secretion of inflammatory cytokines of the compounds of the invention was tested in vitro, more particularly on the secretion of IL-1 (interleukin 1) and on IL-6 and TNFα (tumor necrosis factor), which are the main cytokines related to the arthrotic process.
# (§2) The tests on these three cytokines were carried out on PBMC (Peripheral Blood Mononuclear Cells) cells according to the method of Schindler (R. Schindler et al., Blood, (1990) 75, 40-47) using cycloheximide (IL-1) and dexamethasone (IL-6, TNFα) as reference products.
# (§3) The results of the tests carried out with the flavone derivatives of the invention described in examples 1, 4 and 6 above [sic] are combined in the following table. The tests were carried out in duplicate, at concentrations of 1 and 10 μM. The results are expressed as percentage of inhibition.
# IL-6 = experiment: Inhibition of IL-6 secretion on PBMC cells (method of Schindler); format: cell-based; details: tests in duplicate
# Procedure: as §1, §2, §3
# [1] = system: TNFα (tumor necrosis factor); experiment: Inhibition of TNFα secretion on PBMC cells (method of Schindler); format: cell-based; details: tests in duplicate, read-out: TNFα, percentage of inhibition
# Procedure: as §1, §2, §3
# prostaglandins (PGE2) = experiment: Secretion of prostaglandins (PGE2) on differentiated HL-60 cells (method of Honda); format: cell-based
# Procedure: The effect of the derivatives of the invention on the secretion of prostaglandins (PGE2), which increase articular inflammation, and of leukotriene (LTB4) was measured on differentiated HL-60 cells using the methods of Honda (M. Honda et al., Diabetes Res., (1990) 14, 43-46) and of Bennett (C. F. Bennett et al., Biochem. J., (1993) 289, 33-39), respectively, using indomethacin and nordihydroguaiaretic acid as reference products.
# [2] = read-out: IL1β, percentage of inhibition
# [3] = read-out: IL6, percentage of inhibition
melting point,Structure (SMILES),"inhibition at 1 µM (IL-1 (interleukin 1); 1 μM, read-out: IL1β, percentage of inhibition) [%]",inhibition at 10 µM (IL-1 (interleukin 1); [2]) [%],"inhibition at 1 µM (IL-6; 1 μM, read-out: IL6, percentage of inhibition) [%]",inhibition at 10 µM (IL-6; [3]) [%],inhibition at 1 µM ([1]; 1 μM) [%],inhibition at 10 µM ([1]; 10 μM) [%],"IL1β, percentage of inhibition (IL-1 (interleukin 1); 1 μM) [%]","IL6, percentage of inhibition (IL-6; 1 μM) [%]",effect on the secretion of prostaglandins (prostaglandins (PGE2))
270 °C (dec.),"O=C(O)c1cc(O)c2c(=O)cc(-c3ccccc3)oc2c1 [Example 1, 5-Hydroxy-2-phenyl-4-oxo-4H-chromene-7-carboxylic acid]",15,96,50,98,61,32,–,–,–
–,"O=C(O)c1cc(O)c2c(=O)cc(-c3ccc(C(F)(F)F)cc3)oc2c1 [Example 6, 5-Hydroxy-2-(4′-trifluoromethylphenyl)-4-oxo-4H-chromene-7-carboxylic acid]",–,72,–,100,–,–,–,–,–
–,"COc1ccc(-c2cc(=O)c3c(O)cc(C(=O)O)cc3o2)cc1 [Example 4, 5-Hydroxy-0.2-(4′-methoxyphenyl)-4-oxo-4H-chromene-7-carboxylic acid]",–,–,–,–,–,–,<10,56,stimulating the secretion of prostaglandins
